From patent publication US8569336B2, “Compounds for the treatment of inflammatory disorders” (priority 2008, dated 2013)
Where two headings read alike, the source gives them in different places.

What was measured:
[1] = biological target: T1, purified catalytic domain of recombinant human TACE (rhTACEc) (Homo sapiens, UniProt P78536, N452Q/S266A); assay: TACE kinetic assay: cleavage of internally quenched peptide substrate TNF-FRET 2 (Ki); format: biochemical; settings: TNF-FRET 2 substrate
T1 construct: 6xHis (C); made in house; host or cells: baculovirus/Hi5 insect cells
T1 sequence (P78536 215-477 S266A/N452Q): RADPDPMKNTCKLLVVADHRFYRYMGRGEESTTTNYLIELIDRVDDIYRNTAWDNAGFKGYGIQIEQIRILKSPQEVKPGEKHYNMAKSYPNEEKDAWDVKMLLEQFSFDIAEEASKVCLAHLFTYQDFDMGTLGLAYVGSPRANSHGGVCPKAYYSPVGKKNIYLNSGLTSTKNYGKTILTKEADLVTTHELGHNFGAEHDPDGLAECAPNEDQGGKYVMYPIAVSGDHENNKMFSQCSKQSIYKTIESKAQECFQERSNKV

[2] = system: TNF-α production from human whole blood; assay: Inhibition of TNF-α production from human whole blood (hWBA), LPS stimulated, ELISA; format: cell-based; settings: Homo sapiens, TNF-α by ELISA, read-out: hWBA (IC50)
[3] = LPS-stimulated human whole blood
[4] = 3.5 h, human whole blood diluted 1:1, LPS stimulated, 3.5 h
[5] = human whole blood diluted 1:1, LPS stimulated

Compound | Ki ([1]; read-out: Ki) | IC50 [2, 3] | IC50 [2, 4] | IC50 [2, 5] | Ki ([1]; Ki)
CCOC(=O)N1CCc2cc([C@]3(CN4Cc5ccc(OC)cc5C4=O)NC(=O)NC3=O)oc2C1 [Compound 317] | 2.13 nM | 704 nM |  |  | 
CCCN1CC=C(c2nc3cc([C@]4(CN5Cc6ccc(OC)c(F)c6C5=O)NC(=O)NC4=O)oc3cc2F)CC1 [Compound 1322] | 0.51 nM | 96 nM |  |  | 
COc1ccc2c(c1)C(=O)N(C[C@@]1(c3cc4nc(N5CCC(O)CC5)ccc4o3)NC(=O)NC1=O)C2 [Compound 2172] | 0.577 nM |  | 210 nM |  | 
COc1ccc2c(c1)C(=O)N(C[C@@]1(c3cc4cnc(NC(C)C)nc4o3)NC(=O)NC1=O)C2 [Compound 2298] | 1.69 nM |  |  | ≥ 1000 nM | 
COc1ccc2c(c1F)C(=O)N(C[C@@]1(c3cc4nc(N5CCNCC5)ccc4o3)NC(=O)NC1=O)C2 [Compound 1725] | 0.6 nM | 97 nM |  |  | 
COc1ccc2c(c1F)C(=O)N(C[C@@]1(c3cc4cnc(C)nc4o3)NC(=O)NC1=O)C2 [Compound 304] | 1.23 nM | 300 nM |  |  | 
COc1ccc2c(c1)C(=O)N(C[C@@]1(c3cc4cc(CNC5CCCCC5)ccc4o3)NC(=O)NC1=O)C2 [Compound 2180] | 0.443 nM |  | 617 nM |  | 
COc1ccc2c(c1F)C(=O)N(C[C@@]1(c3cc4nc(-c5cccnc5)c(F)cc4o3)NC(=O)NC1=O)C2 [Compound 1315] | 0.09 nM | 1120 nM |  |  | 
O=C1NC(=O)[C@](CN2Cc3ccc(OCC4CC4)c(F)c3C2=O)(c2cc3cc4c(c(F)c3o2)C(=O)NC4)N1 [Compound 2493] | 0.49 nM |  |  | 349 nM | 
CNc1cc2oc([C@]3(CN4Cc5ccc(OC)cc5C4=O)NC(=O)NC3=O)cc2cn1 [Compound 2291] | 0.578 nM |  |  | 3420 nM | 
COc1ccc2c(c1)C(=O)N(C[C@@]1(c3cc4c(-c5cn[nH]c5)nccc4o3)NC(=O)NC1=O)C2 [Compound 2283] | 0.185 nM |  |  | 154 nM | 
COc1ccc2c(c1F)C(=O)N(C[C@@]1(c3cc4nc(N(CCN(C)C)c5cn[nH]c5)ccc4o3)NC(=O)NC1=O)C2 [Compound 1714] | 0.85 nM | 271 nM |  |  | 
COc1ccc2c(c1)C(=O)N(C[C@@]1(c3cc4cc(C(=O)N5CCN(C)CC5)c(C)cc4o3)NC(=O)NC1=O)C2 [Compound 2427] | 1.42 nM |  |  | 560 nM | 
COC(=O)c1ccc2oc([C@]3(CN4Cc5ccc(OC)c(F)c5C4=O)NC(=O)NC3=O)cc2n1 [Compound 1903] | 0.48 nM | 248 nM |  |  | 
COc1ccc2c(c1)C(=O)N(C[C@@]1(c3cc4cc5c(cc4o3)[C@@H](NC(=O)OC(C)(C)C)CC5)NC(=O)NC1=O)C2 [Compound 2507] | 1.43 nM |  |  | 4160 nM | 
COc1ccc2c(c1)C(=O)N(C[C@@]1(c3cc4ccc(C(=O)N5CCNC(=O)C5)cc4o3)NC(=O)NC1=O)C2 [Compound 2422] |  |  |  | 519 nM | 0.68 nM
COc1ccc2c(c1)C(=O)N(C[C@@]1(c3cc4cc5c(cc4o3)[C@@H](N)CC5)NC(=O)NC1=O)C2 [Compound 2508] | 0.52 nM |  |  | 1020 nM | 
COc1ccc2c(c1)C(=O)N(C[C@@]1(c3cc4cnc(N)cc4o3)NC(=O)NC1=O)C2 [Compound 2282] | 0.422 nM |  |  | 268 nM | 
COc1ccc2c(c1)C(=O)N(C[C@@]1(c3cc4cnc(O)cc4o3)NC(=O)NC1=O)C2 [Compound 2312] | 1.06 nM |  |  | 218 nM | 

Compound | Ki ([1]; read-out: Ki) | IC50 [2, 3] | IC50 [2, 4] | IC50 [2, 5] | Ki ([1]; Ki)
COc1ccc2c(c1)C(=O)N(C[C@@]1(c3cc4c(O)nccc4o3)NC(=O)NC1=O)C2 [Compound 2256] | 0.231 nM |  | 252 nM |  | 
COc1ccc2c(c1)C(=O)N(C[C@@]1(c3cc4cc(C(=NO)N5CCOCC5)ccc4o3)NC(=O)NC1=O)C2 [Compound 2454] | 0.49 nM |  |  | 760 nM | 
COc1ccc2c(c1)C(=O)N(C[C@@]1(c3ccc(-c4ccc(C5(CN)NC(=O)NC5=O)cc4)cc3)NC(=O)NC1=O)C2 (stereo partly shown) [Compound 2175] | 2.08 nM |  | 1760 nM |  | 
COc1ccc2c(c1)C(=O)N(C[C@@]1(c3cc4cc(C(C)=O)cnc4o3)NC(=O)NC1=O)C2 [Compound 2433] | 0.731 nM |  |  | 712 nM | 
CCNC(=O)OCc1cnc2cc([C@]3(CN4Cc5ccc(OC)cc5C4=O)NC(=O)NC3=O)oc2c1 [Compound 1944] | 0.69 nM | 2250 nM |  |  | 
COc1ccc2c(c1)C(=O)N(C[C@@]1(c3cc4ccc(C(=O)N[C@@H](C)CO)cc4o3)NC(=O)NC1=O)C2 [Compound 2417] | 0.64 nM |  |  | 508 nM | 
COc1ccc2c(c1)C(=O)N(C[C@@]1(c3cc4nc(-c5ccc(F)c(C#N)c5)ccc4o3)NC(=O)NC1=O)C2 [Compound 1507] | 0.7 nM | 4120 nM |  |  | 
C#Cc1c(O)ccc2c1C(=O)N(C[C@@]1(c3cc4ncccc4o3)NC(=O)NC1=O)C2 [Compound 1737] | 5.8 nM | > 10000 nM |  |  | 
COC(=O)c1ccc2oc([C@]3(CN4Cc5ccc(OC)cc5C4=O)NC(=O)NC3=O)cc2n1 [Compound 2463] | 0.13 nM |  |  | 339 nM | 
COc1ccc2c(c1)C(=O)N(C[C@@]1(c3cc4cc(CNCCN)ccc4o3)NC(=O)NC1=O)C2 [Compound 2179] | 0.713 nM |  | 376 nM |  | 
COC(=O)c1cnc2cc([C@]3(CN4Cc5ccc(OC)cc5C4=O)NC(=O)NC3=O)oc2c1 [Compound 2458] | 0.518 nM |  |  | 841 nM | 
COc1ccc2c(c1)C(=O)N(C[C@@]1(c3cc4cc(C(=O)NO)ccc4o3)NC(=O)NC1=O)C2 [Compound 2402] | 0.5 nM |  |  | 256 nM | 
COc1ccc2c(c1)C(=O)N(C[C@@]1(c3cc4ccc(C(=O)NC[C@@H](C)O)cc4o3)NC(=O)NC1=O)C2 [Compound 2416] | 0.56 nM |  |  | 891 nM | 
COc1ccc2c(c1)C(=O)N(C[C@@]1(c3cc4cc(C=O)ccc4o3)NC(=O)NC1=O)C2 [Compound 2451] | 0.41 nM |  |  | 987 nM | 
COc1ccc2c(c1)C(=O)N(C[C@@]1(c3cc4cc(-c5cnn(C)c5)ncc4o3)NC(=O)NC1=O)C2 [Compound 306] | 0.661 nM | 658 nM |  |  | 
COc1ccc2c(c1)C(=O)N(C[C@@]1(c3cc4nc(-c5cc[nH]n5)ccc4o3)NC(=O)NC1=O)C2 [Compound 2103] | 0.342 nM |  | 375 nM |  | 
COc1ccc2c(c1)C(=O)N(C[C@@]1(c3cc4ncc(C(=O)NC5CC5)cc4o3)NC(=O)NC1=O)C2 [Compound 1931] | 0.56 nM | 321 nM |  |  | 
COc1ccc2c(c1F)C(=O)N(C[C@@]1(c3cc4nc(-c5ccnc(N6CCN(C(=O)C(F)(F)F)CC6)c5)ccc4o3)NC(=O)NC1=O)C2 [Compound 1718] | 0.48 nM | 299 nM |  |  | 
CSc1ccc2c(c1)C(=O)N(C[C@@]1(c3cc4cnccc4o3)NC(=O)NC1=O)C2 [Compound 309] | 0.377 nM | 662 nM |  |  | 

Compound | Ki ([1]; read-out: Ki) | IC50 [2, 3] | IC50 [2, 4] | IC50 [2, 5] | Ki ([1]; Ki)
COc1ccc2c(c1F)C(=O)N(C[C@@]1(c3cc4ccc5c(c4o3)CNC5=O)NC(=O)NC1=O)C2 [Compound 2498] | 1.21 nM |  |  | 166 nM | 
COc1ccc2c(c1)C(=O)N(C[C@@]1(c3ccc(C(=O)NS(C)(=O)=O)cc3)NC(=O)NC1=O)C2 [Compound 2406] | 5.38 nM |  |  | 7110 nM | 
COc1ccc2c(c1)C(=O)N(C[C@@]1(c3ccc(-c4ccc(C5(C)NC(=O)NC5=O)cc4)cc3)NC(=O)NC1=O)C2 (stereo partly shown) [Compound 2205] | 0.659 nM |  | ≥ 1000 nM |  | 
COc1ccc2c(c1)C(=O)N(C[C@@]1(c3cc4nc(C(=O)NCCN(C)C)ccc4o3)NC(=O)NC1=O)C2 [Compound 1927] | 0.87 nM | 567 nM |  |  | 
CCN1CCCN(c2ccc3oc([C@]4(CN5Cc6ccc(OC)c(F)c6C5=O)NC(=O)NC4=O)cc3n2)CC1 [Compound 1727] | 0.048 nM | 154 nM |  |  | 
COc1ccc2c(c1F)C(=O)N(C[C@@]1(c3ccco3)NC(=O)NC1=O)C2 [Compound 313] | 0.736 nM | 1790 nM |  |  | 
COc1ccc2c(c1F)C(=O)N(C[C@@]1(c3cc4nc(N5CCCC(C(N)=O)C5)ccc4o3)NC(=O)NC1=O)C2 (stereo partly shown) [Compound 1517] | 0.5 nM | 260 nM |  |  | 
COc1ccc2c(c1)C(=O)N(C[C@@]1(c3cc4c(-c5ccccc5F)nccc4o3)NC(=O)NC1=O)C2 [Compound 2237] | 0.356 nM |  | 1150 nM |  | 
COc1ccc2c(c1)C(=O)N(C[C@@]1(c3cc4nc(Nc5ccncc5)ccc4o3)NC(=O)NC1=O)C2 [Compound 2136] | 0.427 nM |  | 247 nM |  | 
COc1ccc2c(c1)C(=O)N(C[C@@]1(c3cc4nc(-c5cnc(OC)nc5OC)ccc4o3)NC(=O)NC1=O)C2 [Compound 1509] | 0.5 nM | 2920 nM |  |  | 
COc1ccc2c(c1)C(=O)N(C[C@@]1(c3cc4c(o3)CCN(CC(N)=O)C4)NC(=O)NC1=O)C2 [Compound 2268] |  |  | 252 nM |  | 0.702 nM
COc1ccc2c(c1F)C(=O)N(C[C@@]1(c3cc4nc(N(c5cn[nH]c5)C5CCNCC5)ccc4o3)NC(=O)NC1=O)C2 [Compound 1724] | 1.31 nM | 185 nM |  |  | 
COc1ccc2c(c1)C(=O)N(C[C@@]1(c3cc4cc(CN)ccc4o3)NC(=O)NC1=O)C2 [Compound 2182] | 0.79 nM |  | 532 nM |  | 
CN(C)C1CCN(c2ccc3oc(C4(CN5CCc6ccsc6C5=O)NC(=O)NC4=O)cc3n2)CC1 (stereo not shown) [Compound 2495] | 0.71 nM |  |  | 650 nM | 
COc1ccc2c(c1)C(=O)N(C[C@@]1(c3cc4ccc(C(=O)NCCN5CCCC5)cc4o3)NC(=O)NC1=O)C2 [Compound 2418] | 0.76 nM |  |  | 265 nM | 
COc1ccc2c(c1)C(=O)N(C[C@@]1(c3cc4ncc(C(=O)NC5CC5)cc4o3)NC(=O)NC1=O)C2 [Compound 2460] | 0.556 nM |  |  | 321 nM | 
CCN1CCN(c2cc3oc([C@]4(CN5Cc6ccc(OC)c(F)c6C5=O)NC(=O)NC4=O)cc3nc2C)CC1 [Compound 1920] | 2.16 nM | 674 nM |  |  | 
COC(=O)c1cc2cc([C@]3(CN4Cc5ccc(OC)cc5C4=O)NC(=O)NC3=O)oc2cc1F [Compound 1271] | 0.45 nM |  | 1050 nM |  | 
